According to patent US20260108547A1, “LEVERAGING L-FUCOSE-MEDIATED SIGNALING TO INDUCE MONOCYTE-DERIVED DENDRITIC CELL POLARIZATION” (H. LEE MOFFITT CANCER CENTER AND RESEARCH INSTITUTE, INC., priority 2022, published 2026):

Key:
[1] = system: human PBMC-derived CD4+T cells; experiment: Phosphoproteomic and fucosylated proteomic analyses of CD3/CD28-activated CD4+T cells; assay type: cell-based; conditions: 250 μM L-fucose
Method: CD4^+T cells cultured and treated as indicated in the main text were harvested and lysed in standard RIPA buffer+protease and phosphatase inhibitors. Protein concentration was estimated by BCA assay (Bio-Rad) and 1 mg lysates were subjected to trypsin digestion. Briefly, lysates were reduced with 4.5 mM dithiothreitol (DTT) for 30 min at 60° C., alkylated with 10 mM iodoacetamide (IAA) at room temperature in the dark for 20 minutes, and digested overnight at 37° C. with 1:20 enzyme-to-protein ratio of trypsin (Worthington). The resulting peptide solution was de-salted using reversed-phase Sep-Pak C18 cartridge (Waters) and lyophilized for 48 hours.
The lyophilized peptides were enriched for global phosphopeptides (pSTY) using IMAC Fe-NTA magnetic beads (Cell Signaling Technology, #20432). Enrichment were carried out on a KingFisher™ Flex Purification System (Thermo Fisher, #24074441). […]
On-bead digestion was performed with trypsin and tryptic peptides were then analyzed using a nanoflow ultra-high-performance liquid chromatograph (RSLC, Dionex, Sunnyvale, CA) coupled to an electrospray orbitrap mass spectrometer (Q-Exactive Plus, Thermo, San Jose, CA) for tandem mass spectrometry peptide sequencing. […] MaxQuant software (version 1.6.2.10) was used to identify and quantify the proteins for the DDA runs. […]

SW1 tumor cells = experiment: Co-culture of pretreated moDCs with GFP-expressing SW1 tumor cells (GFP loss, LDH release); assay type: cell-based, mouse; conditions: loss of GFP fluorescence
Source text: We next sought to determine if the change in phagocytosis we observe in the bead uptake assay was accompanied with increased cytotoxic tendencies in the L-fucose-treated moDCs. To this end we co-cultured pretreated moDCs with GFP-expressing SW1 tumor cells to observe (FIG. 26C) loss of GFP fluorescence correlating with SW1 and (FIG. 26D) release of LDH as markers of cell death.

In the case of `C[C@H](O)[C@@H](O)[C@@H](O)[C@H](O)C=O` [L-fucose], the “Protein Kinase A (PKA) and actin signaling in CD4+T cells” value [1] is reported as “significantly altering” and the “phenotype of moDCs in co-culture with SW1 tumor cells” value (SW1 tumor cells) is reported as “cytotoxic-like phenotype”.
